In patent US6492174B1, “Methods of initiating embryogenic cultures in plants” (Institute of Paper Science & Technology, priority 2000, dated 2002):
Read-outs that look alike come from different tables or passages of the source.

Columns and labels:
[1] = test system: Loblolly pine megagametophytes
Experimental: As in Example 9, the explants in this experiment were megagametophytes, containing Stage 2-4 somatic embryos, excised from the open pollinated summer cones of four different genotypes of Loblolly pine. Megagametophytes were isolated as in Example 4 and put on initiation media #889 (Table 47). The experiment consisted of three replications per treatment, per cone collection. Replications consisted of ten explants in adjacent wells on a single well plate. Plates were wrapped in […] and incubated in the dark at 23-24° C.
Explants were cultured on solid media under atmospheres containing three levels of oxygen: normal air (21% oxygen), 30% oxygen and 50% oxygen. All oxygen treatments were applied at either normal atmospheric pressure or under an elevated pressure of 1.5 atmospheres.
After eight weeks, extrusion and initiation were scored, as described in Example 3.

loblolly pine = settings: silver nitrate at about 29-59 μM; cited from earlier work
[2] = genotype 5-1036, 30% Oxygen + Pressure
[3] = genotype 5-1036, 50% Oxygen + Pressure
[4] = genotype 11-1057, 30% Oxygen + Pressure
[5] = genotype 11-1057, 50% Oxygen + Pressure
[6] = genotype 18-120, 30% Oxygen + Pressure
[7] = genotype 18-120, 50% Oxygen + Pressure
[8] = genotype 18-1212, 30% Oxygen + Pressure
[9] = genotype 18-1212, 50% Oxygen + Pressure

O=O [Oxygen]
% Megagametophytes Extruding ([1]; Total, 30% Oxygen): 45.3%
% Megagametophytes Initiating ([1]; Total, 30% Oxygen): 5.9%
% Megagametophytes Extruding ([1]; Total, 30% Oxygen + Pressure): 53.2%
% Megagametophytes Initiating ([1]; Total, 30% Oxygen + Pressure): 7.6%
% Megagametophytes Extruding ([1]; Total, 50% Oxygen): 49.8%
% Megagametophytes Initiating ([1]; Total, 50% Oxygen): 11.1%
% Megagametophytes Extruding ([1]; Total, 50% Oxygen + Pressure): 56.9%
% Megagametophytes Initiating ([1]; Total, 50% Oxygen + Pressure): 8.6%
% Megagametophytes Extruding ([1]; genotype 5-1036, 30% Oxygen): 57.5 (3.8) %
% Megagametophytes Initiating ([1]; genotype 5-1036, 30% Oxygen): 3.3 (3.3) %
% Megagametophytes Extruding [1, 2]: 73.3 (8.8) %
% Megagametophytes Initiating [1, 2]: 13.3 (3.3) %
% Megagametophytes Extruding ([1]; genotype 5-1036, 50% Oxygen): 50.0 (10.0) %
% Megagametophytes Initiating ([1]; genotype 5-1036, 50% Oxygen): 20.0 (5.8) %
% Megagametophytes Extruding [1, 3]: 83.3 (3.3) %
% Megagametophytes Initiating [1, 3]: 13.3 (3.3) %
% Megagametophytes Extruding ([1]; genotype 11-1057, 30% Oxygen): 30.0 (15.3) %
% Megagametophytes Initiating ([1]; genotype 11-1057, 30% Oxygen): 10.0 (0.0) %
% Megagametophytes Extruding [1, 4]: 34.4 (16.1) %
% Megagametophytes Initiating [1, 4]: 6.7 (67) %
% Megagametophytes Extruding ([1]; genotype 11-1057, 50% Oxygen): 53.3 (3.3) %
% Megagametophytes Initiating ([1]; genotype 11-1057, 50% Oxygen): 13.0 (3.3) %
% Megagametophytes Extruding [1, 5]: 43.3 (3.3) %
% Megagametophytes Initiating [1, 5]: 10.0 (5.8) %
% Megagametophytes Extruding ([1]; genotype 18-120, 30% Oxygen): 33.3 (19.2) %
% Megagametophytes Initiating ([1]; genotype 18-120, 30% Oxygen): 0.0 (0.0) %
% Megagametophytes Extruding [1, 6]: 16.7 (8.8) %
% Megagametophytes Initiating [1, 6]: 6.7 (6.7) %
% Megagametophytes Extruding ([1]; genotype 18-120, 50% Oxygen): 40.0 (10.0) %
% Megagametophytes Initiating ([1]; genotype 18-120, 50% Oxygen): 0.0 (0.0) %
% Megagametophytes Extruding [1, 7]: 30.8 (3.6) %
% Megagametophytes Initiating [1, 7]: 4.2 (4.2) %
% Megagametophytes Extruding ([1]; genotype 18-1212, 30% Oxygen): 60.3 (8.0) %
% Megagametophytes Initiating ([1]; genotype 18-1212, 30% Oxygen): 10.4 (5.8) %
% Megagametophytes Extruding [1, 8]: 88.4 (6.5) %
% Megagametophytes Initiating [1, 8]: 3.7 (3.7) %
% Megagametophytes Extruding ([1]; genotype 18-1212, 50% Oxygen): 56.0 (3.6) %
% Megagametophytes Initiating ([1]; genotype 18-1212, 50% Oxygen): 11.2 (0.7) %
% Megagametophytes Extruding [1, 9]: 70.0 (15.3) %
% Megagametophytes Initiating [1, 9]: 10.0 (5.8) %

O=[N+]([O-])[O-].[Ag+] [silver nitrate]
embryogenic culture initiation (loblolly pine): improved embryogenic culture initiation
